# Experiments:
# rat mGlu2 receptor = biological target: T1, rat mGlu2 receptor (Rattus norvegicus, UniProt P31421); test: [3H]-LY354740 binding on mGlu2 transfected CHO cell membranes; conditions: [3H]-LY354740 (10 nM) displacement
# T1 construct: expressed in transfected cells; membranes prepared from them
# Excerpt: [^3H]-LY354740 Binding on mGlu2 Transfected CHO Cell Membranes. Transfection and Cell Culture
# cDNA encoding the rat mGlu2 receptor protein in pBluescript II was subcloned into the eukaryotic expression vector pcDNA I-amp from Invitrogen Ltd (Paisley, UK). This vector construct (pcD1mGR2) was co-transfected with a psvNeo plasmid encoding the gene for neomycin resistance, into CHO cells by a modified calcium phosphate method described by Chen & Okayama (1988). The cells were maintained in Dulbecco's Modified Eagle medium with reduced L-glutamine (2 mM final concentration) and 10% dialysed foetal calf serum from Gibco-Invitrogen (Carlsbad, Calif., USA). Selection was made in the presence of G-418 (1000 ug/ml final) and […]. Clones were identified by reverse transcription of 5 μg total RNA, followed by PCR using mGlu2 receptor specific primers 5′-[…]-3′ and 5′-[…]-3′ in 60 mM Tris HCl (pH 10), 15 mM (NH4)2SO4, 2 mM MgCl2, 25 units/ml Taq Polymerase with 30 cycles annealing at 60° C. for 1 min., extention at 72° C. for 30 s, and 1 min. 95° C. denaturation.
# Cells, cultured as above, were harvested and washed three times with cold PBS and frozen at −80° C. The pellet was resuspended in cold 20 mM HEPES-NaOH buffer containing 10 mM EDTA (pH 7.4), and homogenised with a polytron (Kinematica, A G, Littau, Switzerland) for 10 s at 10 000 rpm. After centrifugation for 30 min. at 4° C., the pellet was washed once with the same buffer, and once with cold 20 mM HEPES-NaOH buffer containing 0.1 mM EDTA, (pH 7.4). Protein content was measured using the micro BCA method from Pierce-Perbio (Rockford, Ill., USA) using bovine serum albumin as standard.
# After thawing, the membranes were resuspended in cold 50 mM Tris-HCl buffer containing 2 mM MgCl2 (pH 7) (binding buffer). The final concentration of the membranes in the assays was 25 μg protein/ml. Inhibition experiments were performed with membranes incubated with 10 nM [^3H]-LY354740 at room temperature, for 1 hour, in presence of various concentrations of the compound to be tested. Following the incubations, membranes were filtered onto Whatmann GF/B glass fiber filters and washed 5 times with cold binding buffer. Non specific binding was measured in the presence of 10 μM DCG IV. After transfer of the filters into plastic vials containing 10 ml of Ultima-gold scintillation fluid from Perkin-Elmer (Boston, Mass., USA), the radioactivity was measured by liquid scintillation in a Tri-Garb 2500 TR counter (Packard, Zürich, Switzerland).
# The inhibition curves were fitted with a four parameter logistic equation giving IC50 values, and Hill coefficients.
# T1 sequence (P31421 19-872): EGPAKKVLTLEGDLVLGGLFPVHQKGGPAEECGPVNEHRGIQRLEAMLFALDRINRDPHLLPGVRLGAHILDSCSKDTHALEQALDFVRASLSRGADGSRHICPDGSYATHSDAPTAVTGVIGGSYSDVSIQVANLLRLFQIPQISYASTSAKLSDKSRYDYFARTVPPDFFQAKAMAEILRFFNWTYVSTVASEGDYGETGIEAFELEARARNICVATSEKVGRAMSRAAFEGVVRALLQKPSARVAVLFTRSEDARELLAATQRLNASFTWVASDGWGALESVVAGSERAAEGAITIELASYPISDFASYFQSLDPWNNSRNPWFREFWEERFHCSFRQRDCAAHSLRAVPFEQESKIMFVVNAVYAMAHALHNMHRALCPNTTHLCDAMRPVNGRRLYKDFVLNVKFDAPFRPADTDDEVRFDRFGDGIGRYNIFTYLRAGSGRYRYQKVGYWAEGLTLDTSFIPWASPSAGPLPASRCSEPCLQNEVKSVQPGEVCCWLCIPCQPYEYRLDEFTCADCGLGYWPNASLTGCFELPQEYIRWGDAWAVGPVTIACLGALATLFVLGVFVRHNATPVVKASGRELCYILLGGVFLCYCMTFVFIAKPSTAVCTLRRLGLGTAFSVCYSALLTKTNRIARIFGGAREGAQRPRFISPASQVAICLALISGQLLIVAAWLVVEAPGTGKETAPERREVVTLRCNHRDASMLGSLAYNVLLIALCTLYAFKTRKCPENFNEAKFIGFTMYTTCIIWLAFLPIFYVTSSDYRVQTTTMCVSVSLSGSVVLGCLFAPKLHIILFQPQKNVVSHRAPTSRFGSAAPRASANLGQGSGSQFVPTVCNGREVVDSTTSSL
Compound,melting point [°C],Ki (rat mGlu2 receptor) [nM]
"NS(=O)(=O)c1ccc(-c2noc(-c3cnn4c(C(F)(F)F)cc(-c5ccc(C(F)(F)F)cc5)nc34)n2)cc1 [Example 1, 4-{5-[7-Trifluoromethyl-5-(4-trifluoromethyl-phenyl)-pyrazolo[1,5-a]pyrimidin-3-yl]-[1,2,4]oxadiazol-3-yl}-benzenesulfonamide]",275,5.6
"FC(F)(F)c1ccc(-c2cc(C(F)(F)F)n3ncc(-c4nc(-c5cccnc5)no4)c3n2)cc1 [Example 3, 3-(3-Pyridin-3-yl-[1,2,4]oxadiazol-5-yl)-7-trifluoromethyl-5-(4-trifluoromethyl-phenyl)-pyrazolo[1,5-a]pyrimidine]",199,48.1
"NS(=O)(=O)c1cccc(-c2noc(-c3cnc4c(C(F)(F)F)cc(-c5ccc(C(F)(F)F)cc5)cn34)n2)c1 [Example 11, 3-{5-[8-Trifluoromethyl-6-(4-trifluoromethyl-phenyl)-imidazo[1,2-a]pyridin-3-yl]-[1,2,4]oxadiazol-3-yl}-benzenesulfonamide]",297,8.8
"NS(=O)(=O)c1ccc(-c2noc(-c3cnn4c(C5CC5)cc(-c5ccc(Cl)cc5)nc34)n2)s1 [Example 20, 5-{5-[5-(4-Chloro-phenyl)-7-cydopropyl-pyrazolo[1,5-a]pyrimidin-3-yl]-[1,2,4]oxadiazol-3-yl}-thiophene-2-sulfonic acid amide]",294,16.1
"NS(=O)(=O)c1ccc(-c2nc(-c3ncn4c(C(F)(F)F)cc(-c5ccc(C(F)(F)F)cc5)nc34)no2)cc1 [Example 21, 4-{3-[4-Trifluoromethyl-2-(4-trifluoromethyl-phenyl)-imidazo[1,5-a]pyrimidin-8-yl]-[1,2,4]oxadiazol-5-yl}-benzenesulfonamide]",303,10.2
"Nc1ccc(-c2noc(-c3cnn4c(C(F)(F)F)cc(-c5cccc(C(F)(F)F)c5)nc34)n2)cn1 [Example 34, 5-{5-[7-Trifluoromethyl-5-(3-trifluoromethyl-phenyl)-pyrazolo[1,5-a]pyrimidin-3-yl]-[1,2,4]oxadiazol-3-yl}-pyridin-2-ylamine]",264,51
"Cc1cc(-c2ccc(Cl)cc2)cn2c(-c3nc(-c4ccc(S(N)(=O)=O)s4)no3)cnc12 [Example 41, 5-{5-[6-(4-Chloro-phenyl)-8-methyl-imidazo[1,2-a]pyridin-3-yl]-[1,2,4]oxadiazol-3-yl}-thiophene-2-sulfonic acid amide]",271,21.3
"NS(=O)(=O)c1ccc(-c2noc(-c3ncn4c(C(F)(F)F)cc(-c5ccc(C(F)(F)F)cc5)nc34)n2)s1 [Example 42, 5-{5-[4-Trifluoromethyl-2-(4-trifluoromethyl-phenyl)-imidazo[1,5-a]pyrimidin-8-yl]-[1,2,4]oxadiazol-3-yl}-thiophene-2-sulfonic acid amide]",295,14.6
"Nc1ncc(-c2noc(-c3cnn4c(C(F)(F)F)cc(-c5ccc(C(F)(F)F)cc5)nc34)n2)cn1 [Example 46, 5-{5-[7-Trifluoromethyl-5-(4-trifluoromethyl-phenyl)-pyrazolo[1,5-a]pyrimidin-3-yl]-[1,2,4]oxadiazol-3-yl}-pyrimidin-2-ylamine]",254,14.5
"Cc1cc(-c2ccc(C(F)(F)F)cc2)cn2c(-c3nc(-c4ccc(N)nc4)no3)cnc12 [Example 47, 5-{5-[8-Methyl-6-(4-trifluoromethyl-phenyl)-imidazo[1,2-a]pyridin-3-yl]-[1,2,4]oxadiazol-3-yl}-pyridin-2-ylamine]",257,7.7
"Cc1cc(-c2ccc(C(F)(F)F)cc2)cn2c(-c3nc(-c4cnc(N)nc4)no3)cnc12 [Example 48, 5-{5-[8-Methyl-6-(4-trifluoromethyl-phenyl)-imidazo[1,2-a]pyridin-3-yl]-[1,2,4]oxadiazol-3-yl}-pyrimidin-2-ylamine]",302,6.5
"Cc1cc(-c2cc(C(F)F)n3ncc(-c4nc(-c5ccc(N)nc5)no4)c3n2)ccc1Cl [Example 77, 5-{5-[5-(4-Chloro-3-methyl-phenyl)-7-difluoromethyl-pyrazolo[1,5-a]pyrimidin-3-yl]-[1,2,4]oxadiazol-3-yl}-pyridin-2-ylamine]",243,25.5
"Nc1ncc(-c2noc(-c3cnn4c(C(F)(F)F)cc(-c5ccc(Cl)c(Cl)c5)nc34)n2)cn1 [Example 81, 5-{5-[5-(3,4-Dichloro-phenyl)-7-trifluoromethyl-pyrazolo[1,5-a]pyrimidin-3-yl]-[1,2,4]oxadiazol-3-yl}-pyrimidin-2-ylamine]",300,
"Nc1ncc(-c2noc(-c3cnn4c(C(F)(F)F)cc(-c5ccc(Cl)cc5)nc34)n2)cn1 [Example 82, 5-{5-[5-(4-Chloro-phenyl)-7-trifluoromethyl-pyrazolo[1,5-a]pyrimidin-3-yl]-[1,2,4]oxadiazol-3-yl}-pyrimidin-2-ylamine]",268,
"Cc1cc(-c2cc(C(F)(F)F)n3ncc(-c4nc(-c5cnc(N)nc5)no4)c3n2)ccc1C(F)(F)F [Example 83, 5-{5-[5-(3-Methyl-4-trifluoromethyl-phenyl)-7-trifluoromethyl-pyrazolo[1,5-a]pyrimidin-3-yl]-[1,2,4]oxadiazol-3-yl}-pyrimidin-2-ylamine]",272,
"Cc1cc(-c2cc(C(F)(F)F)n3ncc(-c4nc(-c5cnc(N)nc5)no4)c3n2)ccc1Cl [Example 84, 5-{5-[5-(4-Chloro-3-methyl-phenyl)-7-trifluoromethyl-pyrazolo[1,5-a]pyrimidin-3-yl]-[1,2,4]oxadiazol-3-yl}-pyrimidin-2-ylamine]",272,
"Nc1cc(-c2noc(-c3cnn4c(C(F)(F)F)cc(-c5ccc(Cl)cc5)nc34)n2)ccn1 [Example 85, 4-{5-[5-(4-Chloro-phenyl)-7-trifluoromethyl-pyrazolo[1,5-a]pyrimidin-3-yl]-[1,2,4]oxadiazol-3-yl}-pyridin-2-ylamine]",252,
"Nc1cc(-c2noc(-c3cnn4c(C(F)(F)F)cc(-c5ccc(Cl)c(Cl)c5)nc34)n2)ccn1 [Example 86, 4-{5-[5-(3,4-Dichloro-phenyl)-7-trifluoromethyl-pyrazolo[1,5-a]pyrimidin-3-yl]-[1,2,4]oxadiazol-3-yl}-pyridin-2-ylamine]",262,
"Cc1cc(-c2cc(C(F)(F)F)n3ncc(-c4nc(-c5ccnc(N)c5)no4)c3n2)ccc1C(F)(F)F [Example 87, 4-{5-[5-(3-Methyl-4-trifluoromethyl-phenyl)-7-trifluoromethyl-pyrazolo[1,5-a]pyrimidin-3-yl]-[1,2,4]oxadiazol-3-yl}-pyridine-2-ylamine]",245,

# Reference: patent US8349844B2, “Substituted pyrazolo [1,5-A] pyrimidines as metabotropic glutamate antagonists” (Hoffmann-La Roche Inc., priority 2005, dated 2013)
